Experimental data published in article PMC5667507, “A novel ^18F-labelled high affinity agent for PET imaging of the translocator protein” (Chemical Science, 2015).

Columns and labels:
TSPO [1] = biological target: T1, TSPO (Mus musculus, UniProt P50637); test: In vitro autoradiography, brain sections of G7 orthotopic mouse model of human glioblastoma; type: binding; details: contralateral region; 3 nM tracer, 10 µM PK11195
T1 construct: The brain from a mouse bearing an intracranial G7 tumour was used; from tissue; host or cells: 20 µm coronal cryosections of CD1 nude mouse brain with an intracranial G7 human glioblastoma xenograft
Text: (§1) An initial investigation of the potential of [^18F]-AB5186 6 to bind to TSPO in brain involved in vitro autoradiography using a G7 orthotopic mouse model of human glioblastoma.[25] Autoradiography allows the distribution of a radiolabelled compound to be visualised in intact biological tissue sections.[26] […] Displacement of [^18F]-AB5186 6 by the TSPO ligand PK11195 confirms the in vitro specificity of the tracer for TSPO in brain tissue.
(§2) The fraction containing 18F-AB5186 6 was concentrated in vacuo and then reconstituted in 2 mL of a 10% ethanol/0.9% saline solution. Passing the sample through a pre-treated 13 mm 0.2 µm filter then completed formulation of the radiotracer. The identity of the radiolabelled product was confirmed by co-injection with a cold sample of AB5186 6. Quality control was performed by analytical HPLC, using a Phenomenex Synergi 4 µm Hydro-RP 80A (150 × 4.60 mm) column and the mobile phase described above for the semi-prep HPLC purification step. Radiochemical purity was determined by measuring the area under the peaks on the chromatogram, and specific activity was calculated using a standard curve.
(§3) 8. Radio-HPLC chromatogram of [18F]-AB5186 (6) after purification
(§4) CD1 nude mice had […] of either G7 or U87MG-Luc2 cultured cells implanted intracranially into the caudate nucleus using standard stereotactic procedures. Successful implantation of U87MG-Luc2 tumours was confirmed by performing IVIS® scans approximately two weeks following the procedure. Animals were used for ex vivo autoradiography and PET imaging studies 21–30 days post tumour implantation. Prior to any procedure mice were anaesthetised using inhaled isoflurane (in medical oxygen; induction 5.0%; maintenance 2.0–3.0%). Body temperature was maintained using a heating pad.
(§5) 10. In vitro Autoradiography5 Methodology
(§6) The brain from a mouse bearing an intracranial G7 tumour was used. […]
(§7) temperature. Non-specific binding was determined in adjacent sections by incubating with [18F]- AB5186 6 in the presence of 10 µM PK11195 (Tocris, UK). […]

TSPO [2] = test: as above; type: binding
Text: as §1, §2, §3, §4, §5, §6, §7

TSPO [3] = test: Ex vivo autoradiography, U87MG-Luc2 orthotopic glioma bearing mice; type: in vivo, mouse
Method: To investigate the behavior of [^18F]-AB5186 6 in vivo, ex vivo autoradiography was performed using mice bearing a U87MG-Luc2 orthotopic model of human glioblastoma. Animals were pre-treated with either vehicle (n = 4) or 1 mg kg^–1 unlabelled PK11195 (n = 4) administered intravenously 10 min prior to [^18F]-AB5186 6 intravenous injection. Animals were killed and brains were removed 20 min after the radiotracer was given and frozen. Cryostat sections were then used to generate autoradiograms. […] The non-tumour bearing contralateral side of the brain lacked proliferating cells and minimal TSPO expression and immunolabelled microglia were visible (data not shown). Under normal circumstances microglia express low levels of TSPO in the brain. […]
as §7
Following this, the tissues were washed with 0.1% Tween® 20 in TBS (2 × 5 min) and a secondary one hour incubation at room temperature was performed using Dako horseradish-peroxidase labelled anti-mouse or anti-rabbit polymers. The sections were once again washed using 0.1% Tween® 20 in TBS (2 × 5 min) and the presence of antibody was detected using the 3,3’- diaminobenzidine chromagen solution diluted in Dako DAB+ substrate buffer. […]

T1 sequence (P50637 whole entry): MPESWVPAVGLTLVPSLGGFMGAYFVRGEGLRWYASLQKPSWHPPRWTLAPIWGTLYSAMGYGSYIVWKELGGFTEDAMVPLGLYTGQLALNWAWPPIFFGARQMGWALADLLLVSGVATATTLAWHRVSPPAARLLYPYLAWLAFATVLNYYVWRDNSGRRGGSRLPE

CCN(CC)C(=O)c1nc2ccccc2c(-c2ccccc2)c1C[18F] [[^18F]-AB5186 6]
displacement of tracer binding by excess unlabelled PK11195 (TSPO [1]): 23% | total binding, tumour tissue compared to contralateral side (TSPO [2]; in vitro autoradiograms, G7 xenograft): markedly increased | displacement of tracer binding by excess unlabelled PK11195 (TSPO [2]; tumour tissue, 3 nM tracer, 10 µM PK11195): 76% | binding (tumour to contralateral optical density ratio) after PK11195 blockade (TSPO [3]; 1 mg kg^-1 unlabelled PK11195 i.v. 10 min before tracer, P = 0.0002): significantly reduced | total binding, tumour tissue compared to contralateral region (TSPO [3]; ex vivo autoradiography, vehicle pre-treatment, brains removed 20 min after tracer i.v.): substantially higher
